{"source": "patent US12108719B2", "about": "“Methods for creating doubled haploid plants” (Monsanto Technology LLC, priority 2015, dated 2024)", "test_system": "diploid maize plant", "experiment": "Multibud induction, embryo axis method (Example 8)", "type": "in vivo", "description": "Seeds of a diploid maize plant were surface sterilized comprising immersion using standard methods of the art and then germinated in vitro in growth media. One of the resulting seedlings was dissected from its seed two days after germination (embryo axis method). The dissected axis was then subjected to a multibud induction treatment comprising transfer to fresh multibud induction media containing cytokinin in the form of 10 mg/L BAP. After seven days in the multibud bud induction media, the treated seedlings were transferred back to a hormone-free regeneration media. […] These multibuds were dissected from the mother plant and transferred to rooting media comprising IBA and IAA. After approximately one week, the multibud-derived plants were transplanted into 10 inch pots and allowed to grow in a greenhouse until it was clear that each autonomously-growing multibud-derived shoot had formed ears and tassels that nicked. Each ear was then pollinated from the tassel growing in the same pot and then all plants were allowed to grow in greenhouse conditions until seed set.", "data": [{"smiles": "c1ccc(CNc2ncnc3nc[nH]c23)cc1", "note": "[BAP, 6-Benzylaminopurine]", "values": [{"measurement": "multibud formation", "setting": "10 mg/L BAP for seven days, observed after approximately twenty days", "result": "induced multibuds could be seen growing from the nodal regions of the stem"}, {"measurement": "seed borne by ears of multibud-derived plants", "setting": "10 mg/L BAP multibud induction, self-pollinated multibud-derived plants", "result": "dozens of seed each"}]}]}
